Measurements reported in patent US11840528B2 (Hoffmann-La Roche Inc., priority 2018, dated 2023).

Key:
[1] = molecular target: T1, h-GABA-A α5β3γ2 (Homo sapiens, UniProt P18507+P31644); assay: Two-electrode voltage clamp electrophysiology in Xenopus laevis oocytes expressing GABAA receptors, modulation of GABA EC20 current; type: cell-based; design: host or cells: Xenopus laevis oocytes micro-injected with RNA transcripts of the subunits; conditions: Table 1; for Efficacy (GABA) %: % modulation of GABA EC20 = 100*(Fold increase-1); for Fold increase h-GABA-A α5β3γ2 oocyte: test compound at approx. 30 fold its Ki, GABA at EC20
Method in brief: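 Human α5β3γ2 GABAA receptors were expressed in Xenopus oocytes by RNA injection, with γ2 RNA 5–10-fold higher, and recorded 3–5 days later by two-electrode voltage clamp at −80 mV at room temperature. The test compound, at about 30× its Ki, was co-applied during a second GABA EC20 pulse. Efficacy is the extremum of the point-by-point ratio to the first response, expressed as 100*(Fold increase−1).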

[2] = molecular target: T1, h-GABA-A α5β3γ2; assay: [3H]flumazenil competition binding assay, membranes of HEK293 cells expressing GABAA receptors; conditions: displacement of [3H]-Flumazenil 0.5 nM, HEK293 cells expressing human receptors, mean of two determinations; Table 1
Method in brief: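 Membranes from HEK293 cells transiently expressing human α5β3γ2 GABAA receptors, in Krebs-tris buffer pH 7.5, competed against [3H]flumazenil for 1 hour at 4° C to equilibrium. Bound radioactivity collected on GF/C filters and counted by liquid scintillation; Ki values are means of two determinations.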

Row | Compound | Efficacy (GABA) % [1] [%] | Fold increase h-GABA-A α5β3γ2 oocyte [1] | Ki [2] [nM]
1 | Cc1onc(-c2ccc(Cl)nn2)c1Cn1ncc(N2CC(OC(C)(C)C)C2)cc1=O [Example 271, 5-(3-(tert-butoxy)azetidin-1-yl)-2-((3-(6-chloropyridazin-3-yl)-5-methylisoxazol-4-yl)methyl)pyridazin-3(2H)-one] | 90 | 1.9 | 7.3
2 | Cc1onc(-c2ccc(Cl)nc2)c1Cn1ncc(N2CCN(c3cncnc3)CC2)cc1=O [Example 277, 2-((3-(6-chloropyridin-3-yl)-5-methylisoxazol-4-yl)methyl)-5-(4-(pyrimidin-5-yl)piperazin-1-yl)pyridazin-3(2H)-one] | 131 | 2.31 | 3.4
3 | Cc1onc(-c2ccc(Cl)nc2)c1Cn1ncc(N2CCN(c3cccnc3)CC2)cc1=O [Example 278, 2-((3-(6-chloropyridin-3-yl)-5-methylisoxazol-4-yl)methyl)-5-(4-(pyridin-3-yl)piperazin-1-yl)pyridazin-3(2H)-one] | 108 | 2.08 | 8
4 | Cc1nonc1N1CCN(c2cnn(Cc3c(-c4ccc(Cl)nc4)noc3C)c(=O)c2)CC1 [Example 280, 2-((3-(6-chloropyridin-3-yl)-5-methylisoxazol-4-yl)methyl)-5-(4-(4-methyl-1,2,5-oxadiazol-3-yl)piperazin-1-yl)pyridazin-3(2H)-one] | 166 | 2.66 | 7.5
5 | COC1CN(c2cnn(Cc3c(-c4ccc(C(F)(F)F)nn4)noc3C)c(=O)c2)C1 [Example 281, 5-(3-methoxyazetidin-1-yl)-2-((5-methyl-3-(6-(trifluoromethyl)pyridazin-3-yl)isoxazol-4-yl)methyl)pyridazin-3(2H)-one] | 105 | 2.05 | 9.4
6 | CO[C@H]1CN(c2cnn(Cc3c(-c4ccc(Cl)nc4)noc3C)c(=O)c2)[C@H]1C [Example 286, 2-((3-(6-chloropyridin-3-yl)-5-methylisoxazol-4-yl)methyl)-5-((2S,3S)-3-methoxy-2-methylazetidin-1-yl)pyridazin-3(2H)-one] | 112 | 2.12 | 3.3
7 | Cc1onc(-c2ccc(Cl)nc2)c1Cn1ncc(N2C[C@@H](O)[C@H]2C)cc1=O [Example 289, 2-((3-(6-chloropyridin-3-yl)-5-methylisoxazol-4-yl)methyl)-5-((2R,3R)-3-hydroxy-2-methylazetidin-1-yl)pyridazin-3(2H)-one] | 68 | 1.68 | 2.2
8 | CCO[C@@H]1CN(c2cnn(Cc3c(-c4ccc(Cl)nc4)noc3C)c(=O)c2)[C@@H]1C [Example 294, 2-((3-(6-chloropyridin-3-yl)-5-methylisoxazol-4-yl)methyl)-5-((2R,3R)-3-ethoxy-2-methylazetidin-1-yl)pyridazin-3(2H)-one] | 117 | 2.17 | 41.8
9 | COC1CC2(C1)CN(c1cnn(Cc3c(-c4ccc(Cl)nc4)noc3C)c(=O)c1)C2 [Example 303] | 138 | 2.38 | 23.7
10 | Cc1ccc(-c2noc(C)c2Cn2ncc(N3CC(OC4(C)CC4)C3)cc2=O)nn1 [Example 305, 5-[3-(1-methylcyclopropoxy)azetidin-1-yl]-2-[[5-methyl-3-(6-methylpyridazin-3-yl)isoxazol-4-yl]methyl]pyridazin-3-one] | 100 | 2 | 2.5
11 | Cc1ccc(-c2noc(C)c2Cn2ncc(N3CC(OCC(F)F)C3)cc2=O)nn1 [Example 306, 5-(3-(2,2-difluoroethoxy)azetidin-1-yl)-2-((5-methyl-3-(6-methylpyridazin-3-yl)isoxazol-4-yl)methyl)pyridazin-3(2H)-one] | 101 | 2.01 | 1.2
12 | Cc1ccc(-c2noc(C)c2Cn2ncc(N3CC4(CC(OC(F)F)C4)C3)cc2=O)nn1 [Example 315, 5-[6-(difluoromethoxy)-2-azaspiro[3.3]heptan-2-yl]-2-[[5-methyl-3-(6-methylpyridazin-3-yl)isoxazol-4-yl]methyl]pyridazin-3-one] | 140 | 2.4 | 4
13 | Cc1ccc(-c2noc(C)c2Cn2ncc(N3CC4(CCCCCO4)C3)cc2=O)nn1 [Example 316, 2-[[5-methyl-3-(6-methylpyridazin-3-yl)isoxazol-4-yl]methyl]-5-(5-oxa-2-azaspiro[3.6]decan-2-yl)pyridazin-3-one] | 100 | 2 | 4.3
14 | CCc1onc(-c2ccc(C)nn2)c1Cn1ncc(N2CC3(CCCCO3)C2)cc1=O [Example 324, 2-((5-ethyl-3-(6-methylpyridazin-3-yl)isoxazol-4-yl)methyl)-5-(5-oxa-2-azaspiro[3.5]nonan-2-yl)pyridazin-3(2H)-one] | 166 | 2.66 | 20
15 | Cc1ccc(-c2noc(CF)c2Cn2ncc(N3CC4(CCCCO4)C3)cc2=O)nn1 [Example 328, 2-((5-(fluoromethyl)-3-(6-methylpyridazin-3-yl)isoxazol-4-yl)methyl)-5-(5-oxa-2-azaspiro[3.5]nonan-2-yl)pyridazin-3(2H)-one] | 70 | 1.7 | 12.6

Continued by falling Ki [2], values first:

Row | Efficacy (GABA) % [1] [%] | Fold increase h-GABA-A α5β3γ2 oocyte [1] | Ki [2] [nM] | Compound
16 | 73 | 1.73 | 71.1 | Cc1onc(-c2ccc(Cl)nc2)c1Cn1ncc(N2CC3(C[C@H](C)CCO3)C2)cc1=O [Example 322, (R)-2-((3-(6-chloropyridin-3-yl)-5-methylisoxazol-4-yl)methyl)-5-(8-methyl-5-oxa-2-azaspiro[3.5]nonan-2-yl)pyridazin-3(2H)-one]
17 | 144 | 2.44 | 27.8 | Cc1onc(-c2ccc(Cl)nc2)c1Cn1ncc(N2CCC3(CCO3)CC2)cc1=O [Example 270, 2-((3-(6-chloropyridin-3-yl)-5-methylisoxazol-4-yl)methyl)-5-(1-oxa-7-azaspiro[3.5]nonan-7-yl)pyridazin-3(2H)-one]
18 | 135 | 2.35 | 26.4 | CCOC1CN(c2cnn(Cc3c(-c4ccc(Cl)nc4)noc3C)c(=O)c2Cl)C1 [Example 272, 4-chloro-2-((3-(6-chloropyridin-3-yl)-5-methylisoxazol-4-yl)methyl)-5-(3-ethoxyazetidin-1-yl)pyridazin-3(2H)-one]
19 | 74 | 1.74 | 16 | Cc1ccc(-c2noc(CF)c2Cn2ncc(N3CC4(CCCO4)C3)cc2=O)nn1 [Example 295, 2-((5-(fluoromethyl)-3-(6-methylpyridazin-3-yl)isoxazol-4-yl)methyl)-5-(5-oxa-2-azaspiro[3.4]octan-2-yl)pyridazin-3(2H)-one]
20 | 105 | 2.05 | 14.2 | Cc1ccc(-c2noc(C)c2Cn2ncc(N3CC4(CCC(C)(C)O4)C3)cc2=O)nn1 [Example 310, 5-(6,6-dimethyl-5-oxa-2-azaspiro[3.4]octan-2-yl)-2-[[5-methyl-3-(6-methylpyridazin-3-yl)isoxazol-4-yl]methyl]pyridazin-3-one]
21 | 87 | 1.87 | 8.6 | CCOC1CN(c2cnn(Cc3c(-c4ccc(C)nn4)noc3CF)c(=O)c2)C1 [Example 279, 5-(3-ethoxyazetidin-1-yl)-2-((5-(fluoromethyl)-3-(6-methylpyridazin-3-yl)isoxazol-4-yl)methyl)pyridazin-3(2H)-one]
22 | 124 | 2.24 | 2.8 | CCO[C@H]1CN(c2cnn(Cc3c(-c4ccc(Cl)nc4)noc3C)c(=O)c2)[C@H]1C [Example 291, 2-((3-(6-chloropyridin-3-yl)-5-methylisoxazol-4-yl)methyl)-5-((2S,3S)-3-ethoxy-2-methylazetidin-1-yl)pyridazin-3(2H)-one]
23 | 84 | 1.84 | 2.6 | Cc1ncccc1N1CCN(c2cnn(Cc3c(-c4ccc(Cl)nc4)noc3C)c(=O)c2)CC1 [Example 285, 2-((3-(6-chloropyridin-3-yl)-5-methylisoxazol-4-yl)methyl)-5-(4-(2-methylpyridin-3-yl)piperazin-1-yl)pyridazin-3(2H)-one]
24 | 149 | 2.49 | 2 | Cc1ccc(-c2noc(C)c2Cn2ncc(N3CCC4(CCCCO4)CC3)cc2=O)nn1 [Example 302, 2-[[5-methyl-3-(6-methylpyridazin-3-yl)isoxazol-4-yl]methyl]-5-(1-oxa-9-azaspiro[5.5]undecan-9-yl)pyridazin-3-one]
25 | 166 | 2.66 | 1.5 | COc1ncc(-c2cnn(Cc3c(-c4ccc(Cl)nn4)noc3C)c(=O)c2)cc1Cl [Example 282, 5-(5-chloro-6-methoxypyridin-3-yl)-2-((3-(6-chloropyridazin-3-yl)-5-methylisoxazol-4-yl)methyl)pyridazin-3(2H)-one]
